Data as given in publication PMC9516332 (Frontiers in Oncology, 2022).
Read-outs that look alike come from different tables or passages of the source.

Experiments:
[1] = target: panel of 255 wild-type kinases (Homo sapiens, UniProt P42684); assay: Kinase panel profiling at 1 µmol/L (MSA or IMAP), percentage inhibition; assay type: biochemical; details: ARG kinase assay; 1 µmol/L single concentration; read-out: %-inhibition ARG
[2] = target: panel of 255 wild-type kinases (Homo sapiens, UniProt O00311); assay: as above; assay type: biochemical; details: CDC7/ASK kinase assay; 1 µmol/L single concentration; read-out: %-inhibition CDC7/ASK
134 cancer cell lines = assay: Cell viability assay (ATPlite, 72 hours), IC50 on cancer cell line panel

Compound: CCN1CCN(c2ccc(Nc3cc(N(C)C(=O)Nc4c(Cl)c(OC)cc(OC)c4Cl)ncn3)cc2)CC1 [infigratinib]
- inhibition at 1 µM [1]: 24%
- inhibition at 1 µM [2]: -2%
- IC50 (134 cancer cell lines; HEC-6, read-out: IC50 in cell proliferation assay, HEC-6 cell line (EGFR p.A289V)): > 3.16 µM
- IC50 (134 cancer cell lines; Homo sapiens, 769-P, read-out: IC50 in cell proliferation assay, cell line 769-P): > 3.16 µM
- IC50 (134 cancer cell lines; Homo sapiens, 786-0, read-out: IC50 in cell proliferation assay, cell line 786-O): > 3.16 µM
- IC50 (134 cancer cell lines; Homo sapiens, A 172, read-out: IC50 in cell proliferation assay, cell line A-172): 0.041 µM
- IC50 (134 cancer cell lines; Homo sapiens, A204, read-out: IC50 in cell proliferation assay, cell line A-204): 0.063 µM
- IC50 (134 cancer cell lines; Homo sapiens, A498, read-out: IC50 in cell proliferation assay, cell line A-498): 2.97 µM
- IC50 (134 cancer cell lines; Homo sapiens, A549, read-out: IC50 in cell proliferation assay, cell line A-549): > 3.16 µM
- IC50 (134 cancer cell lines; Homo sapiens, A704, read-out: IC50 in cell proliferation assay, cell line A-704): > 3.16 µM
- IC50 (134 cancer cell lines; Homo sapiens, A-375, read-out: IC50 in cell proliferation assay, cell line A-375 (BRAF p.V600E)): > 3.16 µM
- IC50 (134 cancer cell lines; Homo sapiens, A-427, read-out: IC50 in cell proliferation assay, cell line A-427): 1.79 µM
- IC50 (134 cancer cell lines; Homo sapiens, ACHN, read-out: IC50 in cell proliferation assay, cell line ACHN): 2.75 µM
- IC50 (134 cancer cell lines; Homo sapiens, AN3-CA, read-out: IC50 in cell proliferation assay, cell line AN3-CA (FGFR2 p.N549K)): 0.203 µM
- IC50 (134 cancer cell lines; Homo sapiens, ASPC1, read-out: IC50 in cell proliferation assay, cell line AsPC-1): > 3.16 µM
- IC50 (134 cancer cell lines; Homo sapiens, AU565, read-out: IC50 in cell proliferation assay, cell line AU565 (ERBB2 amplification)): > 3.16 µM
- IC50 (134 cancer cell lines; Homo sapiens, BT-20, read-out: IC50 in cell proliferation assay, cell line BT-20): > 3.16 µM
- IC50 (134 cancer cell lines; Homo sapiens, BT-474, read-out: IC50 in cell proliferation assay, cell line BT-474 (ERBB2 amplification)): > 3.16 µM
- IC50 (134 cancer cell lines; Homo sapiens, BT-549, read-out: IC50 in cell proliferation assay, cell line BT-549): > 3.16 µM
- IC50 (134 cancer cell lines; Homo sapiens, BXPC-3, read-out: IC50 in cell proliferation assay, cell line BxPC-3): > 3.16 µM
- IC50 (134 cancer cell lines; Homo sapiens, C-33-A, read-out: IC50 in cell proliferation assay, cell line C-33 A): > 3.16 µM
- IC50 (134 cancer cell lines; Homo sapiens, CAL-27, read-out: IC50 in cell proliferation assay, cell line CAL-27): > 3.16 µM
- IC50 (134 cancer cell lines; Homo sapiens, CCF-STTG1, read-out: IC50 in cell proliferation assay, cell line CCF-STTG1): > 3.16 µM
- IC50 (134 cancer cell lines; Homo sapiens, CCRF-CEM, read-out: IC50 in cell proliferation assay, cell line CCRF-CEM): > 3.16 µM
- IC50 (134 cancer cell lines; Homo sapiens, COLO 205, read-out: IC50 in cell proliferation assay, cell line COLO 205 (BRAF p.V600E)): > 3.16 µM
- IC50 (134 cancer cell lines; Homo sapiens, COLO-829, read-out: IC50 in cell proliferation assay, cell line COLO 829 (BRAF p.V600E)): > 3.16 µM
- IC50 (134 cancer cell lines; Homo sapiens, DLD-1, read-out: IC50 in cell proliferation assay, cell line DLD-1): > 3.16 µM
- IC50 (134 cancer cell lines; Homo sapiens, DU-4475, read-out: IC50 in cell proliferation assay, cell line DU4475 (BRAF p.V600E)): > 3.16 µM
- IC50 (134 cancer cell lines; Homo sapiens, Daoy, read-out: IC50 in cell proliferation assay, cell line Daoy): > 3.16 µM
- IC50 (134 cancer cell lines; Homo sapiens, DoTc2-4510, read-out: IC50 in cell proliferation assay, cell line DoTc2 4510): > 3.16 µM
- IC50 (134 cancer cell lines; Homo sapiens, FaDu, read-out: IC50 in cell proliferation assay, cell line FaDu): > 3.16 µM
- IC50 (134 cancer cell lines; Homo sapiens, G-361, read-out: IC50 in cell proliferation assay, cell line G-361 (BRAF p.V600E)): > 3.16 µM
- IC50 (134 cancer cell lines; Homo sapiens, HCC827, read-out: IC50 in cell proliferation assay, cell line HCC827 (EGFR exon19del)): 5 µM
- IC50 (134 cancer cell lines; Homo sapiens, HCC4006, read-out: IC50 in cell proliferation assay, cell line HCC4006 (EGFR exon19del)): 6.22 µM
- IC50 (134 cancer cell lines; Homo sapiens, HCT-15, read-out: IC50 in cell proliferation assay, cell line HCT 15): > 3.16 µM
- IC50 (134 cancer cell lines; Homo sapiens, HCT-116, read-out: IC50 in cell proliferation assay, cell line HCT 116): > 3.16 µM
- IC50 (134 cancer cell lines; Homo sapiens, HEC-1, read-out: IC50 in cell proliferation assay, HEC-1 cell line): 3.04 µM
- IC50 (134 cancer cell lines; Homo sapiens, HEC-1B, read-out: IC50 in cell proliferation assay, HEC-1-B cell line (EGFR p.A864V)): > 3.16 µM
- IC50 (134 cancer cell lines; Homo sapiens, HL-60, read-out: IC50 in cell proliferation assay, HL-60 cell line): > 3.16 µM
- IC50 (134 cancer cell lines; Homo sapiens, HT, read-out: IC50 in cell proliferation assay, HT cell line): > 3.16 µM
- IC50 (134 cancer cell lines; Homo sapiens, HT-1080, read-out: IC50 in cell proliferation assay, HT-1080 cell line): 2.99 µM
- IC50 (134 cancer cell lines; Homo sapiens, Hs-578T, read-out: IC50 in cell proliferation assay, Hs 578T cell line): > 3.16 µM
- IC50 (134 cancer cell lines; Homo sapiens, HuTu80, read-out: IC50 in cell proliferation assay, HuTu 80 cell line): 0.039 µM
- IC50 (134 cancer cell lines; Homo sapiens, J82, read-out: IC50 in cell proliferation assay, J82 cell line): > 3.16 µM
- IC50 (134 cancer cell lines; Homo sapiens, Jurkat E6.1, read-out: IC50 in cell proliferation assay, Jurkat E6.1 cell line): > 3.16 µM
- IC50 (134 cancer cell lines; Homo sapiens, K562, read-out: IC50 in cell proliferation assay, K-562 cell line): > 3.16 µM
- IC50 (134 cancer cell lines; Homo sapiens, KATO III, read-out: IC50 in cell proliferation assay, KATO III cell line (FGFR2 amplification)): 0.008 µM
- IC50 (134 cancer cell lines; Homo sapiens, KG-1, read-out: IC50 in cell proliferation assay, KG-1 cell line (FGFR1OP2-FGFR1)): 0.00229 µM
- IC50 (134 cancer cell lines; Homo sapiens, KLE, read-out: IC50 in cell proliferation assay, KLE cell line): > 3.16 µM
- IC50 (134 cancer cell lines; Homo sapiens, KMS-11, read-out: IC50 in cell proliferation assay, KMS-11 cell line (FGFR3 p.Y373C)): 0.026 µM
- IC50 (134 cancer cell lines; Homo sapiens, KU812, read-out: IC50 in cell proliferation assay, Ku812 cell line): > 3.16 µM
- IC50 (134 cancer cell lines; Homo sapiens, Kasumi 1, read-out: IC50 in cell proliferation assay, Kasumi-1 cell line (KIT p.N822K)): 3.42 µM
- IC50 (134 cancer cell lines; Homo sapiens, LC-2-ad, read-out: IC50 in cell proliferation assay, LC-2/ad cell line (CCDC6-RET)): 3.45 µM
- IC50 (134 cancer cell lines; Homo sapiens, LNCaP-Clone-FGC, read-out: IC50 in cell proliferation assay, LNCaP clone FGC cell line): > 3.16 µM
- IC50 (134 cancer cell lines; Homo sapiens, LS174T, read-out: IC50 in cell proliferation assay, LS174T cell line): > 3.16 µM
- IC50 (134 cancer cell lines; Homo sapiens, LS-411N, read-out: IC50 in cell proliferation assay, LS411N cell line (BRAF p.V600E)): > 3.16 µM
- IC50 (134 cancer cell lines; Homo sapiens, LoVo, read-out: IC50 in cell proliferation assay, LoVo cell line): > 3.16 µM
- IC50 (134 cancer cell lines; Homo sapiens, MCF7, read-out: IC50 in cell proliferation assay, MCF-7 cell line): > 3.16 µM
- IC50 (134 cancer cell lines; Homo sapiens, MDA-MB-231, read-out: IC50 in cell proliferation assay, MDA-MB-231 cell line): > 3.16 µM
- IC50 (134 cancer cell lines; Homo sapiens, MDA-MB-453, read-out: IC50 in cell proliferation assay, MDA-MB-453 cell line): 0.655 µM
- IC50 (134 cancer cell lines; Homo sapiens, MDA-MB-468, read-out: IC50 in cell proliferation assay, MDA-MB-468 cell line): > 3.16 µM
- IC50 (134 cancer cell lines; Homo sapiens, MG-63, read-out: IC50 in cell proliferation assay, MG-63 cell line): 0.189 µM
- IC50 (134 cancer cell lines; Homo sapiens, MIA PaCa-2, read-out: IC50 in cell proliferation assay, MIA PaCa-2 cell line): > 3.16 µM
- IC50 (134 cancer cell lines; Homo sapiens, MKN-45, read-out: IC50 in cell proliferation assay, MKN45 cell line (MET amplification)): 4.26 µM
- IC50 (134 cancer cell lines; Homo sapiens, MOLM-13, read-out: IC50 in cell proliferation assay, MOLM-13 cell line (FLT3 ITD)): 3.99 µM
- IC50 (134 cancer cell lines; Homo sapiens, MOLT-4, read-out: IC50 in cell proliferation assay, MOLT-4 cell line): > 3.16 µM
